Data taken from ChEMBL document CHEMBL3046308, “Synthesis of phenoxyphenyl pyridine and pyrazine carboxamides. Activity against Cydia pomonella (L.) eggs” (2000).

What was measured:
Format in all cases: functional
Cydia pomonella [1] = experiment: Ovicidal activity against 24 hr old Cydia pomonella (codling moth) eggs assessed as development period at 5 mg/ml sprayed at 19 +/- 1 degC
Cydia pomonella [2] = experiment: Ovicidal activity against 24 hr old Cydia pomonella (codling moth) eggs assessed as mortality at 5 mg/ml sprayed at 19 +/- 1 degC
Cydia pomonella [3] = experiment: Ovicidal activity against 24 hr old Cydia pomonella (codling moth) eggs assessed as efficacy at 5 mg/ml sprayed at 19 +/- 1 degC

| Compound | Time (Cydia pomonella [1]) [days] | mortality at 5000 µg/mL (Cydia pomonella [2]) [%] | Efficacy (Cydia pomonella [3]) [%] |
| --- | --- | --- | --- |
| C=CCOC(=O)Nc1ccc(Oc2ccc(N)cc2)cc1 | 11.3 | 48.1 | 35 |
| C=CCOC(=O)Nc1ccc(Oc2ccc(NC(=O)c3ccccn3)cc2)cc1 | 11.1 | 40.7 | 27.2 |
| C=CCOC(=O)Nc1ccc(Oc2ccc(NC(=O)c3cccnc3)cc2)cc1 | 10.2 | 34.4 |  |
| C=CCOC(=O)Nc1ccc(Oc2ccc(NC(=O)c3ccncc3)cc2)cc1 | 11.7 | 53.8 | 42.5 |
| C=CCOC(=O)Nc1ccc(Oc2ccc(NC(=O)c3cnccn3)cc2)cc1 | 9.5 | 25.3 |  |
| O=C(Nc1ccc(Oc2ccccc2)cc1)c1ccncc1 | 10 | 33.4 |  |
| O=C(Nc1ccc(Oc2ccccc2)cc1)c1cnccn1 | 9.7 | 29.2 |  |
| CC(=O)Nc1ccc(Oc2ccc(NC(=O)c3ccccn3)cc2)cc1 | 10.9 | 67.3 | 47.1 |
| CC(=O)Nc1ccc(Oc2ccc(NC(=O)c3cccnc3)cc2)cc1 | 10.6 | 57.6 |  |
| CC(=O)Nc1ccc(Oc2ccc(NC(=O)c3ccncc3)cc2)cc1 | 10.1 | 52.7 |  |
| CC(=O)Nc1ccc(Oc2ccc(NC(=O)c3cnccn3)cc2)cc1 | 11 | 68.4 | 49.1 |
| O=C(Nc1ccc(Oc2ccccc2)cc1)c1cccnc1 | 10.6 | 40.9 | 26.3 |
| O=C(Nc1ccc(Oc2ccccc2)cc1)c1ccccn1 | 10.8 | 52.4 | 40.7 |
| CCOC(=O)NCCOc1ccc(Oc2ccccc2)cc1 [PHENOXYCARB] |  | 99.3 | 99.1 |
